Experimental findings from patent US20250129370A1, “METHOD FOR REDUCING HEPATIC TRIGLYCERIDES” (ADAERATA, LIMITED PARTNERSHIP, priority 2022, published 2025) are described below.

For one series, the system named is apoB. Nature of the series: apoB degradation pathway in WT and PCSK7-/- IHH cells with pathway inhibitors. Format: cell-based, human. How it is done:
FIGS. 7A-l: PCSK7 can bind apoB in the ER and acts as a molecular chaperone-like facilitating its secretion, and its absence leads to a rapid degradation of apoB by the proteasome. […] (FIG. 7A) Western blot (presented on gel and graphically) of apoB100 and PC7 protein levels in WT and PCSK7^−/− IHH cells. Levels are normalized to α-tubulin. (FIG. 7B) Western blot (presented on gel and graphically) of apoB100 and PC7 protein levels over time (0, 15 and 30 minutes) in WT and PCSK7^−/− IHH cells incubated with cycloheximide (CHX) to block de novo mRNA translation. Levels are normalized to α-tubulin. (FIG. 7C-D) Western blot (presented on gel and graphically) of cellular apoB levels in WT and PCSK7^−/− IHH cells incubated with brefeldin A (BFA) that blocks exit from the endoplasmic reticulum (ER), an autophagy inhibitor 3-methyladenine (3MA), proteasome inhibitors MG132, Lactacystin, DMSO or non treated (NT) controls. (FIG. 7E) Western blot (presented on gel) of cellular apoB levels and polyubiquitinated apoB100 in WT and PCSK7^−/− IHH cells incubated with Lactacystin. (FIG. 7F) Schematic representation of apoB100 and apoB21 protein. […]

Series [1] has as its system PCSK7 mRNA. The series is described as follows: PCSK7 mRNA qPCR after miRNA overexpression in Huh7 cells. Format: cell-based, human. The settings on record: Huh7, 48 hours following transfection, vs mock vector. The procedure:
(§1) RNA was isolated from the cells with the TRIzol™ Reagent (Invitrogen, USA) according to the manufacturer's instructions. The RNA samples were treated with RNase-free DNase I (Fermentas, USA) to eliminate any possible DNA contamination. Reverse transcription was performed using the PrimeScript™ First Strand cDNA Synthesis Kit (Takara, Japan) following the manufacturer's protocol. Briefly, one unit of the DNase I enzyme, 1 μL of a buffer, and 1 μg of total RNA were incubated for 30 minutes at 37° C. Then, 1 μL of 50 mM EDTA was added for enzyme inactivation and incubated at 65° C. for 10 minutes. Subsequently, 5 μL of DNase-treated RNA was added to the mix of 0.5 μL of the reverse-transcriptase enzyme, 2 μL of the reverse-transcriptase buffer, and 1 μL of a random hexamer and incubated for 15 minutes at 37° C., followed by 5 seconds at 85° C. for enzyme inactivation. Stem-loop RT-qPCR method was applied for evaluating the expression of miRNAs (Kramer, 2011). […]
(§2) All the reactions were repeated in duplicates. Next, melt curves were analyzed, with the mean threshold cycles used for further analyses. The relative expressions of the miRNAs and PCSK7 to RNU48 small nuclear RNA and/or GAPDH and β2m were calculated, respectively, via the 2-ΔΔCt method. […]

Series [2] concerns PCSK7 mRNA. Nature of the series: PCSK7 mRNA qPCR after miRNA overexpression in HEK293T cells. The format is cell-based, human. The procedure:
as §1, §2
Background: Quantitative PCR measures a nucleic acid by following its amplification.

Series [3] relates to 3′-UTR of human PCSK7 mRNAs. Nature of the series: Dual-luciferase reporter assay, wild-type PCSK7 3′-UTR, HEK293T cells. The format is cell-based. Conditions: wild-type PCSK7 3′-UTR psiCHECK-2, HEK293T. From the text: The interactions between the miRNAs and their probable targets on PCSK7 were explored by cloning the potential target regions in psiCHECK-2™ (Promega, USA), a luciferase reporter vector. In psiCHECK-2™, hRluc, the Renilla luciferase gene, is located upstream of the target regions of interest cloned into the psiCHECK-2™ vector downstream of the Renilla gene. The region corresponding to the 3′-UTR of PCSK7 (926-nt sequences in length) that constituted the predicted miRNA response elements was PCR-amplified and cloned downstream of the Renilla luciferase gene in the psiCHECK-2™ vector (Promega, USA). […]
The HEK293T cells were co-transfected through the application of the wild-type psiCHECK-2, the wild-type PCSK7 3′-UTR, the mutant PCSK7 3′-UTR, and the miR-overexpressing vectors so that the direct interactions of the nominated miRNAs with PCSK7 3′-UTR could be investigated. […] Transfection efficiency was monitored by fluorescent microscopy (Nikon TE2000S, Japan) 36 hours following the procedure.
The PsiCHECK-2 reporter construct plasmid contained the Renilla luciferase gene upstream of PCSK7 3′-UTR and an independent firefly luciferase gene as an internal control for normalization. […] Then, LARII Reagent was added, and after 20 minutes, the firefly luciferase activity was measured as a control. Afterward, Renilla activity was determined using Stop & Glo Reagent. […]
For orientation: Reporter assays use an easily measured gene product as a stand-in for the process of interest.

The target of series [4] is T1, endogenous apoB100 of IHH cells (human, UniProt P04114 28-4563).
T1 construct: Endogenous protein in lysates of human IHH cells; also called apolipoprotein B
Nature of the series: co-immunoprecipitation from IHH cell lysates with a human ApoB antibody, Western blot for the V5 tag (FIG. 7I). (Immunoblotting shows a protein as a band on a membrane.)

T1 sequence (P04114 28-4563 limits assumed): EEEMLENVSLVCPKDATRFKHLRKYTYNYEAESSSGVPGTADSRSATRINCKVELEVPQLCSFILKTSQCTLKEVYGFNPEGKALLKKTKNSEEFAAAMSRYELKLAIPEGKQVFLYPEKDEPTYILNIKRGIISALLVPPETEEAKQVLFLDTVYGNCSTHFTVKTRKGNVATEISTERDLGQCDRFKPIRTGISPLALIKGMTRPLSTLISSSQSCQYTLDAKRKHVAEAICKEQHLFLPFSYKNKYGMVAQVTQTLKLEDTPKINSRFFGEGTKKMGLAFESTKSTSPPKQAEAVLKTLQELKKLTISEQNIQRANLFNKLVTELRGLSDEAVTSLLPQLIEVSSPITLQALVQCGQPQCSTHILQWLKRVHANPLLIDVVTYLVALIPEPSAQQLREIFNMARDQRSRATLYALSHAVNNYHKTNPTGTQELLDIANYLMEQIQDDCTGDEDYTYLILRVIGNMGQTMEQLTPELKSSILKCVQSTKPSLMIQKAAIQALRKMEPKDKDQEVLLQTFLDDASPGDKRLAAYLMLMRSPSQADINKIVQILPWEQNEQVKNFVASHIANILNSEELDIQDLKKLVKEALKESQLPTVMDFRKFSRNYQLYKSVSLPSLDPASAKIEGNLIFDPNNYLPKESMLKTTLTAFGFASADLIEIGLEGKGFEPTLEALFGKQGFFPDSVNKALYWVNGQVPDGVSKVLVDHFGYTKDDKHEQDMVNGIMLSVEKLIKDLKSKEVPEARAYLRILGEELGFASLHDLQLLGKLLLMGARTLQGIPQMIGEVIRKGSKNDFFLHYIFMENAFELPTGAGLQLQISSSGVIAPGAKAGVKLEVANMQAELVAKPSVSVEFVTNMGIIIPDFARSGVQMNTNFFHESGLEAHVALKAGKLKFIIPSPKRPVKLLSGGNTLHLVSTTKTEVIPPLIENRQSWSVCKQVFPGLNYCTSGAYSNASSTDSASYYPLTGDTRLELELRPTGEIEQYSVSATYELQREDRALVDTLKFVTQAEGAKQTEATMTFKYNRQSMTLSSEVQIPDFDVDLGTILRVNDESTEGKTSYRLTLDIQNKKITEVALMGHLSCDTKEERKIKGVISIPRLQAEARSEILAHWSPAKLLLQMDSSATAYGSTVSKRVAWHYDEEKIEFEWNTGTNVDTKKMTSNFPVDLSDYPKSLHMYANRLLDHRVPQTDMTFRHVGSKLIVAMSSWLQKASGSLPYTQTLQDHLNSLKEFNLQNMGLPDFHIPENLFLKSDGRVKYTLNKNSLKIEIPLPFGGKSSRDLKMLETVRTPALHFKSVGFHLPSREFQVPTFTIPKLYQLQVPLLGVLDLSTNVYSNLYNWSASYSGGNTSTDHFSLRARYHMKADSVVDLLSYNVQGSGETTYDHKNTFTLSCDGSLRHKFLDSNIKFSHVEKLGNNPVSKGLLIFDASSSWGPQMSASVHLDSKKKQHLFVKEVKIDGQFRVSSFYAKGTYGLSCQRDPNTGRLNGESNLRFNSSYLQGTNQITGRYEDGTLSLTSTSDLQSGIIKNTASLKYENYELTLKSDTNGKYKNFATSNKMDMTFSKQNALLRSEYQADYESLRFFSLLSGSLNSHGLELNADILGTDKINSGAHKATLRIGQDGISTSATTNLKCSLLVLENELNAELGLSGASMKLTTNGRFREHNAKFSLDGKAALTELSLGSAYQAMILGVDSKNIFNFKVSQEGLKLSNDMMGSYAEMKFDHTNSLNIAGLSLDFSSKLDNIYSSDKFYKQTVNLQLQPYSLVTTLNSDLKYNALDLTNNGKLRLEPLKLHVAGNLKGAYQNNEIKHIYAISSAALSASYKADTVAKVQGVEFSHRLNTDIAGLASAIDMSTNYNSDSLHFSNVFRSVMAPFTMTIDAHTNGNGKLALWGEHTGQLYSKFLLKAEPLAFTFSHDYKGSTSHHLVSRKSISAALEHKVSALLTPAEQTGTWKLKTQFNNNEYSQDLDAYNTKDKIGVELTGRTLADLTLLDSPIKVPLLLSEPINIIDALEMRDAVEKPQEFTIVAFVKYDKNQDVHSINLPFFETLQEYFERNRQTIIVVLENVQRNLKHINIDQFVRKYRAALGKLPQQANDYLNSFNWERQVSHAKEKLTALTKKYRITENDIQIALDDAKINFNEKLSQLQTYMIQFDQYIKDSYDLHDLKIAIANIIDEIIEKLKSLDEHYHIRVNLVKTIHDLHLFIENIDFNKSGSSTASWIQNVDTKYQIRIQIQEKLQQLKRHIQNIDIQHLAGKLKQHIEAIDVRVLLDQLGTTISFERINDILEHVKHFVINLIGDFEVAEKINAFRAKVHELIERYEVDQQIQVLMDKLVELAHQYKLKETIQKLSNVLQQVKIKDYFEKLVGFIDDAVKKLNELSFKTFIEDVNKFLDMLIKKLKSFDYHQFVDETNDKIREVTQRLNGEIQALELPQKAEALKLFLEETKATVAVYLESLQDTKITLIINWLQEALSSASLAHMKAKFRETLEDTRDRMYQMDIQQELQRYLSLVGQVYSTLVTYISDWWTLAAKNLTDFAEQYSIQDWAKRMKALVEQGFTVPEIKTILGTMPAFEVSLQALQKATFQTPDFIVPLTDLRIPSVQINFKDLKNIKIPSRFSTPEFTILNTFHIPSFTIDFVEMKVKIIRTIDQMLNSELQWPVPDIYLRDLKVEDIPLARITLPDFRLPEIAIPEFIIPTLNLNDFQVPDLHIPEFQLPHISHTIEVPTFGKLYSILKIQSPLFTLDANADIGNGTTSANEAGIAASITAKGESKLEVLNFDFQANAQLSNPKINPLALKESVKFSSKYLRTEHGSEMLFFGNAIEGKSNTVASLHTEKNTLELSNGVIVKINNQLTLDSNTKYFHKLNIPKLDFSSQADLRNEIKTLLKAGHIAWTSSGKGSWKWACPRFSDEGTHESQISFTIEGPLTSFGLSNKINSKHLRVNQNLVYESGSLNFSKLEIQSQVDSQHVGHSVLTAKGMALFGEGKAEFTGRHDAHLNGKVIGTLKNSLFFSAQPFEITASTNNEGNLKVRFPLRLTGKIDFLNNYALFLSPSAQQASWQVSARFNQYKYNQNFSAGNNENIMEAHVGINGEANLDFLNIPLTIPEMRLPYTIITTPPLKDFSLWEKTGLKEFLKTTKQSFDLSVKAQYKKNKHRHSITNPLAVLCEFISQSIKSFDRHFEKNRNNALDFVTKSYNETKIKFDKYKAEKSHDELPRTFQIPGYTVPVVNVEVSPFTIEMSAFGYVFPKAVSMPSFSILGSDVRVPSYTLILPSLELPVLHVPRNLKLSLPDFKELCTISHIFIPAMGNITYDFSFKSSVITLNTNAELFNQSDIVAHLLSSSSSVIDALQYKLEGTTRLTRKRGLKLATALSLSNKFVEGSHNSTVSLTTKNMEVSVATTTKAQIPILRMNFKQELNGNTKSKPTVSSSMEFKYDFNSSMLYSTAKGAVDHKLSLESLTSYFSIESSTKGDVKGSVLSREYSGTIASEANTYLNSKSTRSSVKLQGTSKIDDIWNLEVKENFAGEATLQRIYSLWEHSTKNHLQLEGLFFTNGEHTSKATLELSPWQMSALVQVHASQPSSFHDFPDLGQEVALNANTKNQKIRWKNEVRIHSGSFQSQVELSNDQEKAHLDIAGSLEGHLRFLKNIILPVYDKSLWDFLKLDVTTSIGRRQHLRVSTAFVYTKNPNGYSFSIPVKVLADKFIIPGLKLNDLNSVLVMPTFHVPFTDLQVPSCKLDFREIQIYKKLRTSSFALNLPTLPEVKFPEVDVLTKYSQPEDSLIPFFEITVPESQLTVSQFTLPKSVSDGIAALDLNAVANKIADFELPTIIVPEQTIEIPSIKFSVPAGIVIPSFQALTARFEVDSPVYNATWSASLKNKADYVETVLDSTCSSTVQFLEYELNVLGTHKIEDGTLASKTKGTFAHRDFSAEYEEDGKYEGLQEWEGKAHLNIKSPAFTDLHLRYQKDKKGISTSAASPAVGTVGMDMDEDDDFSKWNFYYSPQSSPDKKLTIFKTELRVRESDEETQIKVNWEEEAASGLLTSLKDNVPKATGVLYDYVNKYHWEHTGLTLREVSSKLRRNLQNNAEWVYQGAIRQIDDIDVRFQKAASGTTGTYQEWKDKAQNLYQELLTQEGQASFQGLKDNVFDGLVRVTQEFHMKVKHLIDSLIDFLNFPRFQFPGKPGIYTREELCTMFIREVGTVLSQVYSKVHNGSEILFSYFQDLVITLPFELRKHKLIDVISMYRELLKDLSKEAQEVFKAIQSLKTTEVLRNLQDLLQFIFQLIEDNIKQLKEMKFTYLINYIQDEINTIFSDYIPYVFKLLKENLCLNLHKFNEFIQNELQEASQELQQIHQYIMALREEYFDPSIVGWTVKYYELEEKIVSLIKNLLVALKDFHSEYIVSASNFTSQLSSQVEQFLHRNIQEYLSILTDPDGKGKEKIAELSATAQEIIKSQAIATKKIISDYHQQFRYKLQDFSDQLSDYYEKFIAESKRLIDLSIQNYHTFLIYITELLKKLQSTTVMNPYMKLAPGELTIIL

Take `C[C@H]1CCC/C=C/[C@@H]2C[C@H](O)C[C@H]2[C@H](O)/C=C/C(=O)O1` [BFA, brefeldin A]: in the series on apoB, the “inhibition of apoB degradation” value was “absence of BFA inhibition”.

On to “miR-320a-3p: predicted PCSK7-targeting miRNA with one predicted target site, overexpressed from precursor vector (AAAAGCUGGGUUGAGAGGGCGA; miRNA expressed from a precursor vector, further chemistry not given here)”, for which the “effect on expression of PCSK7 mRNA” value with PCSK7 mRNA [1] is listed as “did not downregulate”. Besides, the “effect on PCSK7 mRNA levels” value in the series with PCSK7 mRNA [2] is “no significant regulatory relationship”. Further, in series [3], the “effect on luciferase activity” value is given as “no significant effect”.

B1: SKI-1 tagged with V5 (enzyme, UniProt Q14703 187-1052, looked up)
chain: RAIPRQVAQTLQADVLWQMGYTGANVRVAVFDTGLSEKHPHFKNVKERTNWTNERTLDDGLGHGTFVAGVIASMRECQGFAPDAELHIFRVFTNNQVSYTSWFLDAFNYAILKKIDVLNLSIGGPDFMDHPFVDKVWELTANNVIMVSAIGNDGPLYGTLNNPADQMDVIGVGGIDFEDNIARFSSRGMTTWELPGGYGRMKPDIVTYGAGVRGSGVKGGCRALSGTSVASPVVAGAVTLLVSTVQKRELVNPASMKQALIASARRLPGVNMFEQGHGKLDLLRAYQILNSYKPQASLSPSYIDLTECPYMWPYCSQPIYYGGMPTVVNVTILNGMGVTGRIVDKPDWQPYLPQNGDNIEVAFSYSSVLWPWSGYLAISISVTKKAASWEGIAQGHVMITVASPAETESKNGAEQTSTVKLPIKVKIIPTPPRSKRVLWDQYHNLRYPPGYFPRDNLRMKNDPLDWNGDHIHTNFRDMYQHLRSMGYFVEVLGAPFTCFDASQYGTLLMVDSEEEYFPEEIAKLRRDVDNGLSLVIFSDWYNTSVMRKVKFYDENTRQWWMPDTGGANIPALNELLSVWNMGFSDGLYEGEFTLANHDMYYASGCSIAKFPEDGVVITQTFKDQGLEVLKQETAVVENVPILGLYQIPAEGGGRIVLYGDSNCLDDSHRQKDCFWLLDALLQYTSYGVTPPSLSHSGNRQRPPSGAGSVTPERMEGNHLHRYSKVLEAHLGDPKPRPLPACPRLSWAKPQPLNETAPSNLWKHQKLLSIDLDKVVLPNFRSNRPQVRPLSPGESGAWDIPGGIMPGRYNQEVGQTIPVFAFLGAMVVLAFFVVQINKAKSRPKRRKPRVKRPQLMQQVHPPKTPSV
notes: also called SKI-1-V5; not shown: V5 tag
On to B1, for which the binding result in series [4] is “no binding”.
